The text below walks through data of US8658826B2, “Amino acid derivatives used as pharmaceutical substances” (Dritte Patentportfolio Beteiligungsgesellschaft mgH & Co. KG, priority 2008, dated 2014).

A short description of the data set: oral bioavailability study with rats: benzamidine plasma levels after oral valbenzamidoxime. The data set is classed as in vivo, rat. To be noted: oral 50 mg/kg. On the procedure:
For proving the resorption from the gastrointestinal tract and the subsequent reduction to benzamidine, the valbenamidoxime is orally administered to three rats. The metabolization of the ester into benzamidine in this case takes place in vivo as follows:
The anaesthesia was carried out using xylazine and ketamine. Both were administered by intramuscular injection. The silicone catheters were implanted in the vena jugularis and the arteria carotis. They have locally antithrombotic and anti-inflammatory properties, but are not systemically active. During the surgery, the eyes were protected with a cornea-protective ointment (Oculotect®), and 3-4 ml of Ringer lactate solution was applied subcutaneously for improving the postoperative energy supply. The animals were treated antiphlogistically (Finadyne®, 1 mg/kg of body weight) and antibiotically (Amoxicillin® 15%, 10 mg/kg of body weight) and postoperatively attended and kept warm until they woke up. The day after the surgery, the animals got Nutri Plus®, an energy paste (soy bean oil, molasses, cod-liver oil, meat extract, mineral premixture, vitamin premixture).
Male Wistar rats having an average weight of 200 g served as the test animals. The animals were kept individually in cages. Every second day they got concentrated food. […]
For separating the substances to be analyzed, the following HPLC method was used: […]

For the compound `CC(C)C(N)C(=O)O/N=C(\N)c1ccccc1` (stereo not shown) [valbenzamidoxime], the “resorption of the prodrug after oral administration and metabolization into benzamidine” value was “completely resorbed after oral administration and metabolized into the active form benzamidine”.
